In ChEMBL document CHEMBL1146086, “Design, synthesis, and evaluation of near infrared fluorescent multimeric RGD peptides for targeting tumors” (J Med Chem, 2006):
Numbered stars: 1 amine (or outer) side, 2 acyl side, 3 side chain; on linkers, the order of the positions; unused ones are H or OH. Bridge positions count the residues as written; N and C are the ends. Peptide text beside a SMILES is read from it. I, II: the chains in the order shown. * marks the point of attachment. X2 = CC1(C)C(/C=C/C=C/C=C/C=C2/N(CCC(=O)[*:1])c3ccc4ccccc4c3C2(C)C)=[N+](CCC(=O)[*:2])c2ccc3ccccc3c21; X1 = CC1(C)C(/C=C/C=C/C=C/C=C2/N(CCC(=O)[*:1])c3ccc4ccccc4c3C2(C)C)=[N+](CC(=O)[*:2])c2ccc3ccccc3c21; Cypate = CC1(C)C(/C=C/C=C/C=C/C=C2/N(CCC(=O)*)c3ccc4ccccc4c3C2(C)C)=[N+](CCC(=O)O)c2ccc3ccccc3c21; X3 = CC1(C)C(/C=C/C=C/C=C/C=C2/N(CCC(=O)O)c3ccc4ccccc4c3C2(C)C)=[N+](CC(=O)*)c2ccc3ccccc3c21

Biological target: Integrin alpha-V/beta-3 (Homo sapiens, UniProt P05106+P06756)
Experiment: Displacement of [125I]echistatin from AlphaV-beta-3 integrin receptor
Type: protein-complex assay

Chain of Integrin alpha-V/beta-3 (P05106 27-788 limits assumed): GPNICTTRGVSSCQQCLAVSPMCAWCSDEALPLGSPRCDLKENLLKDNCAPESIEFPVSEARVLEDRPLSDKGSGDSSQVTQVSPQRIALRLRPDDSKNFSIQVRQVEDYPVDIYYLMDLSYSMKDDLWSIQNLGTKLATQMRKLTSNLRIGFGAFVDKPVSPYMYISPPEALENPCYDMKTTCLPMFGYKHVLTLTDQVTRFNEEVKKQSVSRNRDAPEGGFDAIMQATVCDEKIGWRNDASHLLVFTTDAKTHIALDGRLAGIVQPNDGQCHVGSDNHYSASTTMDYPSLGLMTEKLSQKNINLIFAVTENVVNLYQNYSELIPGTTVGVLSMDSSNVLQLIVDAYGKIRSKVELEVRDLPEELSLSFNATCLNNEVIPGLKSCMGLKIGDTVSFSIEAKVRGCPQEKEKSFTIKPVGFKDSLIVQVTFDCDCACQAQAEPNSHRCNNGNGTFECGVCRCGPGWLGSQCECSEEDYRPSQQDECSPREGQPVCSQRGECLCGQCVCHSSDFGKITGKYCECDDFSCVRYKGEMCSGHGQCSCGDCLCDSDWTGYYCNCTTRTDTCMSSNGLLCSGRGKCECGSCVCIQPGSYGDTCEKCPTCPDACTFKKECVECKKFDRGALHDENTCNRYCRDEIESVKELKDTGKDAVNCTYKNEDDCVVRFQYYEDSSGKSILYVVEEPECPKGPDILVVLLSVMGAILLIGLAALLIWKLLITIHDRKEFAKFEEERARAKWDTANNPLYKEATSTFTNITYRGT
Chain of Integrin alpha-V/beta-3 (P06756 31-889 limits assumed): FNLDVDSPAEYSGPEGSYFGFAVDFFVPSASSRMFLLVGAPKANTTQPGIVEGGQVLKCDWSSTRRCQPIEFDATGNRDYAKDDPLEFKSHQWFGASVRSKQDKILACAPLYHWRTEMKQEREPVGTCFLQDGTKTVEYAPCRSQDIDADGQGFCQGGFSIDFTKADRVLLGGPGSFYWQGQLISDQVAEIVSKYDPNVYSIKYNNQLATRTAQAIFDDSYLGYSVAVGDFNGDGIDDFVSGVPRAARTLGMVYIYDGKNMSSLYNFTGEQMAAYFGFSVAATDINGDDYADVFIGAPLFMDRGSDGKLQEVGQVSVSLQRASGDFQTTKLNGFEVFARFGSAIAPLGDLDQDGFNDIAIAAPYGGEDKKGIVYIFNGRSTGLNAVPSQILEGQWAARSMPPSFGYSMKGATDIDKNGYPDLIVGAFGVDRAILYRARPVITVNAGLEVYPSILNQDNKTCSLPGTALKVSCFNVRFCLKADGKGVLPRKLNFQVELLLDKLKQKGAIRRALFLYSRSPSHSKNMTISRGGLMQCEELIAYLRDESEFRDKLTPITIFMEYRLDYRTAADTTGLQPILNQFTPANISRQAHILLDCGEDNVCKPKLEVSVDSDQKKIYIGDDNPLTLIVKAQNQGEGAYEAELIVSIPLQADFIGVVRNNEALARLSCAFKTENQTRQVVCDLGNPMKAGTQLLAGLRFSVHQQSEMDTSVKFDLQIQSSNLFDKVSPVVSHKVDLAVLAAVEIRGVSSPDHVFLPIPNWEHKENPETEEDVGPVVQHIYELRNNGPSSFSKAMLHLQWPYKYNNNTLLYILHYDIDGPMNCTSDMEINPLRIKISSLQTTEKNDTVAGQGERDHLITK
Chain of Integrin alpha-V/beta-3 (P06756 891-1048 limits assumed): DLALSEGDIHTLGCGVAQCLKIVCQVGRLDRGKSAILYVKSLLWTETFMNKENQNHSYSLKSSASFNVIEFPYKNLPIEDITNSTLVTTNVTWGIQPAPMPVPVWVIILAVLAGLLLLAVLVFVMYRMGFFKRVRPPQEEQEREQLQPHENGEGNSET

SMILES | IC50 [nM]
CC1(C)C(/C=C/C=C/C=C/C=C2/N(CCC(=O)O)c3ccc4ccccc4c3C2(C)C)=[N+](CC(=O)N[C@@H](CCCN=C(N)N)C(=O)NCC(=O)N[C@@H](CC(=O)O)C(=O)N[C@@H](CCCN=C(N)N)C(=O)NCC(=O)N[C@@H](CC(=O)O)C(N)=O)c2ccc3ccccc3c21 | 730
CC1(C)C(/C=C/C=C/C=C/C=C2/N(CCC(=O)O)c3ccc4ccccc4c3C2(C)C)=[N+](CC(=O)N[C@@H](CCCN=C(N)N)C(=O)NCC(=O)N[C@@H](CC(=O)O)C(=O)N[C@@H](CCCN=C(N)N)C(=O)NCC(=O)N[C@@H](CC(=O)O)C(=O)N[C@@H](CCCN=C(N)N)C(=O)NCC(=O)N[C@@H](CC(=O)O)C(N)=O)c2ccc3ccccc3c21 (X3-RGDRGDRGD-NH2) | 481
CC1(C)C(/C=C/C=C/C=C/C=C2/N(CCC(=O)N[C@@H](CCCN=C(N)N)C(=O)NCC(=O)N[C@@H](CC(=O)O)C(=O)N[C@@H](CCCN=C(N)N)C(=O)NCC(=O)N[C@@H](CC(=O)O)C(=O)N[C@@H](CCCN=C(N)N)C(=O)NCC(=O)N[C@@H](CC(=O)O)C(N)=O)c3ccc4ccccc4c3C2(C)C)=[N+](CC(=O)N[C@@H](CCCN=C(N)N)C(=O)NCC(=O)N[C@@H](CC(=O)O)C(=O)N[C@@H](CCCN=C(N)N)C(=O)NCC(=O)N[C@@H](CC(=O)O)C(=O)N[C@@H](CCCN=C(N)N)C(=O)NCC(=O)N[C@@H](CC(=O)O)C(N)=O)c2ccc3ccccc3c21 (I: RGDRGDRGD-NH2 / II: RGDRGDRGD-NH2; linker I:N-II:N via X1) | 132
CC1(C)C(/C=C/C=C/C=C/C=C2/N(CCC(=O)N[C@@H](CCCN=C(N)N)C(=O)NCC(=O)N[C@@H](CC(=O)O)C(=O)N[C@@H](CCCN=C(N)N)C(=O)NCC(=O)N[C@@H](CC(=O)O)C(N)=O)c3ccc4ccccc4c3C2(C)C)=[N+](CC(=O)N[C@@H](CCCN=C(N)N)C(=O)NCC(=O)N[C@@H](CC(=O)O)C(=O)N[C@@H](CCCN=C(N)N)C(=O)NCC(=O)N[C@@H](CC(=O)O)C(N)=O)c2ccc3ccccc3c21 | 104
CC1(C)C(/C=C/C=C/C=C/C=C2/N(CCC(=O)N[C@@H](CCCN=C(N)N)C(=O)NCC(=O)N[C@@H](CC(=O)O)C(=O)N[C@@H](CCCN=C(N)N)C(=O)NCC(=O)N[C@@H](CC(=O)O)C(=O)N[C@@H](CCCN=C(N)N)C(=O)NCC(=O)N[C@@H](CC(=O)O)C(=O)N[C@@H](CCCN=C(N)N)C(=O)NCC(=O)N[C@@H](CC(=O)O)C(N)=O)c3ccc4ccccc4c3C2(C)C)=[N+](CCC(=O)O)c2ccc3ccccc3c21 (Cypate-RGDRGDRGDRGD-NH2) | 259

Molecules with a lower IC50, results first:

IC50 [nM] | SMILES
79.6 | CC1(C)C(/C=C/C=C/C=C/C=C2/N(CCC(=O)N[C@@H](CCCN=C(N)N)C(=O)NCC(=O)N[C@@H](CC(=O)O)C(=O)N[C@@H](CCCN=C(N)N)C(=O)NCC(=O)N[C@@H](CC(=O)O)C(=O)N[C@@H](CCCN=C(N)N)C(=O)NCC(=O)N[C@@H](CC(=O)O)C(=O)N[C@@H](CCCN=C(N)N)C(=O)NCC(=O)N[C@@H](CC(=O)O)C(N)=O)c3ccc4ccccc4c3C2(C)C)=[N+](CCC(=O)N[C@@H](CCCN=C(N)N)C(=O)NCC(=O)N[C@@H](CC(=O)O)C(=O)N[C@@H](CCCN=C(N)N)C(=O)NCC(=O)N[C@@H](CC(=O)O)C(=O)N[C@@H](CCCN=C(N)N)C(=O)NCC(=O)N[C@@H](CC(=O)O)C(=O)N[C@@H](CCCN=C(N)N)C(=O)NCC(=O)N[C@@H](CC(=O)O)C(N)=O)c2ccc3ccccc3c21 (I: RGDRGDRGDRGD-NH2 / II: RGDRGDRGDRGD-NH2; linker I:N-II:N via X2)
63.9 | CC1(C)C(/C=C/C=C/C=C/C=C2/N(CCC(=O)NCCCC[C@@H]3NC(=O)[C@@H](Cc4ccccc4)NC(=O)[C@H](CC(=O)O)NC(=O)CNC(=O)[C@H](CCCNC(=N)N)NC3=O)c3ccc4ccccc4c3C2(C)C)=[N+](CCC(=O)O)c2ccc3ccccc3c21
